The test system of the data set is GRN mRNA. Description: GRN mRNA qPCR in SK-N-AS cells transfected with ASOs. In kind it is cell-based, human. Conditions: SK-N-AS; for hit identification (GRN mRNA dose escalation): 3.75 nM to 120 nM; for hGRN mRNA FC / 120 nM FC (GRN mRNA): 120 nM. Summed up:
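Fold change in GRN mRNA, by qPCR with GAPDH/PPIA housekeeping normalization, referenced to steric non-targeting control ASO(s) such as CO-1589. ASOs were transfected into SK-N-AS neuroblastoma cells in dose titrations (20 to 160 nM initially). Cells were harvested 48 hours post-transfection.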

[1] abbreviates: Table 9, 48 hours post-transfection, normalized to CO-1589.
The mark [2] stands for this setting: Table 10, 48 hours, normalized to CO-1589.
The mark [3] stands for this setting: Table 13, normalized to CO-1589.
[4] abbreviates: Table 12, normalized to CO-1589.
[5] abbreviates: Table 11, 48 hours, normalized to CO-1589.
Where [6] appears, read: Table 4, normalized to CO-3772 and CO-1589 (sNTC1).
[7] abbreviates: Table 3, normalized to CO-3772 and CO-1589 (sNTC1).

Oligonucleotides are written 5' to 3', each unit as a sugar letter and its base; * is a phosphorothioate linkage, no mark a phosphodiester; rarer units and linkages stand in square brackets, end groups in braces. Plain capitals give the bases only. e = 2'-O-(2-methoxyethyl) (MOE); l = locked nucleic acid (LNA); [5mC] = 5-methylcytosine; d = 2'-deoxy (DNA)

As to “CO-4631: ASO designed to target intergenic enhancers (eRNA) (antisense eA*e[5mC]*e[5mC]*eA*e[5mC]*eT*e[5mC]*eT*eG*e[5mC]*eA*eG*eT*eT*eG*eT*eA*eT*eG*eG)”, the “hit identification (GRN mRNA dose escalation)” value (48 hours) is given as “initial hits”. Also, under setting [1], the “hGRN mRNA FC” value amounted to 1.1 FC. Further, under setting [2], the “3.75 nM FC (GRN mRNA)” value is reported as 1.1 FC, the “7.5 nM FC (GRN mRNA)” value stood at 1.1 FC, the “15 nM FC (GRN mRNA)” value is 1.2 FC and the “30 nM FC (GRN mRNA)” value is listed as 1.1 FC. Besides, under setting [2], the “60 nM FC (GRN mRNA)” value is given as 1.1 FC and the “120 nM FC (GRN mRNA)” value is on record as 1.3 FC.
Consider “CO-6421: ASO based on parent ASOs CO-4363 and CO-4364 (eG*eG*eA*e[5mC]*eT*lT*eG*eG*eG*eA*eG*lT*eG*eG*eT*eG*eA*l[5mC]*eT*eG*eA*eA*e[5mC])”, for which, under setting [3], the “30 nM FC (GRN mRNA)” value is on record as 1.3 FC, the “60 nM FC (GRN mRNA)” value was 2.1 FC and the “120 nM FC (GRN mRNA)” value was determined as 1.7 FC.
With “CO-4633: ASO designed to target intergenic enhancers (eRNA) (antisense eT*e[5mC]*e[5mC]*eT*e[5mC]*eT*eG*e[5mC]*e[5mC]*eT*eG*eA*e[5mC]*eT*eA*eA*eT*eT*e[5mC]*eG)”, the “hGRN mRNA FC” value under setting [1] is on record as 1.3 FC.
“CO-6397: ASO based on parent ASO CO-3462 (antisense eT*eA*eG*eG*eA*lG*eA*eA*eT*e[5mC]*lG*e[5mC]*eT*eT*eT*lG*eG*eG*eA*eG)”: under setting [4], the “30 nM FC (GRN mRNA)” value is listed as 1.4 FC, the “60 nM FC (GRN mRNA)” value stood at 1.8 FC and the “120 nM FC (GRN mRNA)” value was found to be 1.8 FC.
“CO-6513: ASO based on parent ASO CO-3462 (antisense eT*eA*eGeGeAeGeAeAeT*e[5mC]*eG*e[5mC]*eT*eT*eT*eG*eG*eG*eA*eG)”: under setting [4], the “30 nM FC (GRN mRNA)” value is 1.3 FC, the “60 nM FC (GRN mRNA)” value came to 2.7 FC and the “120 nM FC (GRN mRNA)” value is on record as 1.8 FC.
For “CO-6522: ASO based on parent ASO CO-3462 (antisense eT*eA*eG*eG*eA*eG*eA*eA*eT*e[5mC]*eG*e[5mC]eTeTeTeGeGeG*eA*eG)”, in that order: 1.1 FC, 1.0 FC and 1.1 FC.
In the case of “CO-4585: ASO designed to target intergenic enhancers (eRNA) (antisense eT*e[5mC]*eG*eA*eA*eT*e[5mC]*eT*e[5mC]*e[5mC]*eG*eG*e[5mC]*eT*e[5mC]*eT*eT*e[5mC]*eA*e[5mC])”, under setting [1], the “hGRN mRNA FC” value is 1.4 FC.
With “CO-6519: ASO based on parent ASO CO-3462 (antisense eT*eA*eG*eG*eA*eGeAeAeTe[5mC]eGe[5mC]eTeTeTeGeGeG*eA*eG)”, under setting [4], the “30 nM FC (GRN mRNA)” value is listed as 1.1 FC, the “60 nM FC (GRN mRNA)” value came out at 1.0 FC and the “120 nM FC (GRN mRNA)” value came out at 0.9 FC.
Turning to “CO-4596: ASO designed to target intergenic enhancers (eRNA) (antisense e[5mC]*eA*eA*e[5mC]*eT*eA*eT*e[5mC]*eA*eG*eT*e[5mC]*eA*eA*eG*eG*eT*e[5mC]*eG*eG)”, the “hGRN mRNA FC” value under setting [1] was found to be 1.0 FC.
Consider “CO-6445: ASO designed to target an intragenic enhancer RNA (eRNA) (eG*eT*eG*eG*eG*eA*eA*eG*eT*eA*eT*eG*eG*e[5mC]*eT*eG*e[5mC]*eT*eG*e[5mC])”, for which the “hGRN mRNA FC” value under setting [5] is on record as 1.3 FC.
As to “CO-4602: ASO designed to target intergenic enhancers (eRNA) (antisense eT*eA*e[5mC]*eT*e[5mC]*e[5mC]*eT*eA*eG*e[5mC]*e[5mC]*eT*eG*e[5mC]*eG*e[5mC]*e[5mC]*eT*eT*eT)”, the “hGRN mRNA FC” value under setting [1] was 1.2 FC.
Take “CO-4613: ASO designed to target intergenic enhancers (eRNA) (antisense eA*eT*e[5mC]*eA*eA*eG*eG*eG*eT*eT*eT*eG*eG*e[5mC]*eG*eT*eT*eT*eA*eG)”: for the setting “48 hours”, the “hit identification (GRN mRNA dose escalation)” value is listed as “initial hits”. Also, under setting [1], the “hGRN mRNA FC” value is given as 1.6 FC. Under setting [2], the “3.75 nM FC (GRN mRNA)” value was found to be 1.0 FC, the “7.5 nM FC (GRN mRNA)” value was 1.1 FC, the “15 nM FC (GRN mRNA)” value turned out to be 1.2 FC and the “30 nM FC (GRN mRNA)” value is 1.1 FC. Under setting [2], the “60 nM FC (GRN mRNA)” value was found to be 1.2 FC and the “120 nM FC (GRN mRNA)” value turned out to be 1.4 FC.
Turning to “CO-4621: ASO designed to target intergenic enhancers (eRNA) (antisense e[5mC]*eG*e[5mC]*eT*eG*e[5mC]*eT*eG*eT*eT*eT*eG*eG*eA*eA*e[5mC]*eG*eA*eG*eT)”, the “hGRN mRNA FC” value under setting [1] amounted to 1.2 FC.
Take “CO-4362: longer ASO based on CO-3423 (antisense eG*eA*e[5mC]*eT*eT*dG*dG*dG*eA*dG*dT*eG*dG*dT*dG*eA*e[5mC]*eT*eG*eA)”: under setting [6], the “30 nM FC (GRN mRNA)” value is given as 1.1 FC, the “60 nM FC (GRN mRNA)” value came out at 1.1 FC and the “120 nM FC (GRN mRNA)” value was 1.4 FC.
For the substance “CO-6521: ASO based on parent ASO CO-3462 (antisense eT*eA*eG*eG*eA*eG*eA*eA*eT*e[5mC]eGe[5mC]eTeTeTeGeGeG*eA*eG)”, under setting [4], the “30 nM FC (GRN mRNA)” value is reported as 1.1 FC, the “60 nM FC (GRN mRNA)” value is listed as 1.2 FC and the “120 nM FC (GRN mRNA)” value is recorded as 1.1 FC.
For the substance “CO-4641: ASO designed to target intergenic enhancers (eRNA) (antisense e[5mC]*eG*eT*eT*e[5mC]*e[5mC]*eA*eA*eA*e[5mC]*eA*eG*e[5mC]*eA*eG*e[5mC]*eG*eT*eT*eA)”, the “hGRN mRNA FC” value under setting [1] is reported as 0.9 FC.
Still for that read-out and setting: with “CO-4643: ASO designed to target intergenic enhancers (eRNA) (antisense e[5mC]*eG*eG*e[5mC]*eA*eT*eT*e[5mC]*e[5mC]*e[5mC]*eT*eG*eA*e[5mC]*e[5mC]*eT*eA*eT*e[5mC]*e[5mC])” the figure was 0.9 FC.
Turning to “CO-6446: ASO designed to target an intragenic enhancer RNA (eRNA) (eT*eG*e[5mC]*eT*eG*eT*eG*eA*eG*e[5mC]*eT*eG*e[5mC]*e[5mC]*e[5mC]*eA*eG*eT*eG*eG)”, the “hGRN mRNA FC” value under setting [5] was 1.1 FC.
In the case of “CO-6419: ASO based on parent ASOs CO-4363 and CO-4364 (eG*eG*eA*e[5mC]*eT*dT*dG*dG*dG*dA*dG*dT*dG*dG*dT*dG*dA*d[5mC]*eT*eG*eA*eA*e[5mC])”, under setting [3], the “30 nM FC (GRN mRNA)” value is 1.0 FC, the “60 nM FC (GRN mRNA)” value came out at 1.0 FC and the “120 nM FC (GRN mRNA)” value is on record as 0.9 FC.
On to “CO-4361: longer ASO based on CO-3423 (antisense eG*eA*e[5mC]*eT*eT*dG*dG*dG*dA*dG*dT*dG*dG*dT*dG*eA*e[5mC]*eT*eG*eA)”, for which, under setting [6], the “30 nM FC (GRN mRNA)” value worked out at 1.1 FC, the “60 nM FC (GRN mRNA)” value was found to be 1.3 FC and the “120 nM FC (GRN mRNA)” value is recorded as 1.6 FC.
With “CO-4586: ASO designed to target intergenic enhancers (eRNA) (antisense eT*eG*eA*e[5mC]*eA*eA*eG*e[5mC]*eG*eG*eG*eA*eT*e[5mC]*eG*eG*eA*eG*eA*eG)”, the “hGRN mRNA FC” value under setting [1] came out at 0.9 FC.
As to “CO-6450: ASO designed to target an intragenic enhancer RNA (eRNA) (e[5mC]*eA*eG*eT*eG*eG*e[5mC]*e[5mC]*eT*eT*eG*eT*e[5mC]*e[5mC]*eA*eG*e[5mC]*eT*e[5mC]*eG)”, the “hGRN mRNA FC” value under setting [5] came to 0.9 FC.
As to “CO-4356: LNA/PS modified ASO based on CO-3423 (antisense eG*eG*lA*e[5mC]*eT*lT*eG*eG*lG*eA*eG*lT*eG*eG*lT*eG*eA*l[5mC]*eT*eG)”, under setting [7], the “30 nM FC (GRN mRNA)” value is listed as 1.6 FC, the “60 nM FC (GRN mRNA)” value is recorded as 1.8 FC and the “120 nM FC (GRN mRNA)” value worked out at 2.2 FC.
For “CO-4598: ASO designed to target intergenic enhancers (eRNA) (antisense eG*eT*eG*e[5mC]*eA*eA*eT*e[5mC]*eT*eG*eT*eG*eA*e[5mC]*e[5mC]*eT*eG*eT*eA*eA)”, under setting [1], the “hGRN mRNA FC” value is recorded as 1.1 FC.
Consider “CO-6422: ASO based on parent ASOs CO-4363 and CO-4364 (eG*eG*eA*l[5mC]*eT*eT*eG*lG*eG*eA*eG*lT*eG*eG*eT*lG*eA*e[5mC]*eT*lG*eA*eA*e[5mC])”, for which, under setting [3], the “30 nM FC (GRN mRNA)” value was 1.9 FC, the “60 nM FC (GRN mRNA)” value came out at 2.0 FC and the “120 nM FC (GRN mRNA)” value is listed as 2.1 FC.
Consider “CO-6395: ASO based on parent ASO CO-3462 (antisense eT*eA*eG*eG*lA*eG*eA*eA*lT*e[5mC]*eG*e[5mC]*lT*eT*eT*eG*lG*eG*eA*eG)”, for which, under setting [4], the “30 nM FC (GRN mRNA)” value amounted to 1.0 FC, the “60 nM FC (GRN mRNA)” value is 1.3 FC and the “120 nM FC (GRN mRNA)” value was found to be 1.6 FC.

Source of the values: patent US20250243488A1, “METHODS OF MODULATING PROGRANULIN EXPRESSION USING ANTISENSE OLIGONUCLEOTIDES TARGETING REGULATORY RNAS” (Camp4 Therapeutics Corporation, priority 2022, published 2025).
